Reference: the kinase profiling compilation of Christmann-Franck et al. (2016)

Legend:
Assay in all cases: radiometric filter-binding kinase assay, Kinase HotSpot
Conditions in all cases: compound 0.5 µM; ATP 10 µM
MAP2K1 (human) = MAP2K1 (human) (UniProt Q02750)
FGFR4 (human) = FGFR4 (human) (UniProt P22455)
TNK2 (human) = TNK2 (human) (UniProt Q07912)
TXK (human) = TXK (human) (UniProt P42681)
PASK (human) = PASK (human) (UniProt Q96RG2)
MAP3K2 (human) = MAP3K2 (human) (UniProt Q9Y2U5)
PIM3 (human) = PIM3 (human) (UniProt Q86V86)
CAMK2G (human) = CAMK2G (human) (UniProt Q13555)
MAP3K10 (human) = MAP3K10 (human) (UniProt Q02779)
SRMS (human) = SRMS (human) (UniProt Q9H3Y6)
SRPK1 (human) = SRPK1 (human) (UniProt Q96SB4)
ACVRL1 (human) = ACVRL1 (human) (UniProt P37023)
CAMKK2 (human) = CAMKK2 (human) (UniProt Q96RR4)
STK39 (human) = STK39 (human) (UniProt Q9UEW8)
AKT1 (human) = AKT1 (human) (UniProt P31749)
CDC42BPB (human) = CDC42BPB (human) (UniProt Q9Y5S2)
BRSK2 (human) = BRSK2 (human) (UniProt Q8IWQ3)
DDR2 (human) = DDR2 (human) (UniProt Q16832)
IRAK1 (human) = IRAK1 (human) (UniProt P51617)
INSR (human) = INSR (human) (UniProt P06213)
MAPK14 (human) = MAPK14 (human) (UniProt Q16539)
GRK6 (human) = GRK6 (human) (UniProt P43250)
CHEK1 (human) = CHEK1 (human) (UniProt O14757)
FLT3 (human) = FLT3 (human) (UniProt P36888)
NEK11 (human) = NEK11 (human) (UniProt Q8NG66)
ITK (human) = ITK (human) (UniProt Q08881)
CDK4 CCND1 (human) = CDK4 CCND1 (human) (UniProt P24385+P11802)
CDK2 CCNE1 (human) = CDK2 CCNE1 (human) (UniProt P24941+P24864)
RPS6KA5 KD2 (human) = RPS6KA5 KD2 (human) (UniProt O75582)
MAP3K9 (human) = MAP3K9 (human) (UniProt P80192)
MAPK11 (human) = MAPK11 (human) (UniProt Q15759)
TSSK1B (human) = TSSK1B (human) (UniProt Q9BXA7)
NLK (human) = NLK (human) (UniProt Q9UBE8)
CDK5 CDK5R1 p35 (human) = CDK5 CDK5R1 p35 (human) (UniProt Q00535+Q15078)
PLK1 (human) = PLK1 (human) (UniProt P53350)
MATK (human) = MATK (human) (UniProt P42679)
HIPK2 (human) = HIPK2 (human) (UniProt Q9H2X6)
CDK1 CCNA2 (human) = CDK1 CCNA2 (human) (UniProt P06493+P20248)
STK4 (human) = STK4 (human) (UniProt Q13043)
GSK3B (human) = GSK3B (human) (UniProt P49841)
GSG2 (human) = GSG2 (human) (UniProt Q8TF76)
AURKB (human) = AURKB (human) (UniProt Q96GD4)

Sequence of CAMKK2 (human) (Q96RR4 whole entry, looked up): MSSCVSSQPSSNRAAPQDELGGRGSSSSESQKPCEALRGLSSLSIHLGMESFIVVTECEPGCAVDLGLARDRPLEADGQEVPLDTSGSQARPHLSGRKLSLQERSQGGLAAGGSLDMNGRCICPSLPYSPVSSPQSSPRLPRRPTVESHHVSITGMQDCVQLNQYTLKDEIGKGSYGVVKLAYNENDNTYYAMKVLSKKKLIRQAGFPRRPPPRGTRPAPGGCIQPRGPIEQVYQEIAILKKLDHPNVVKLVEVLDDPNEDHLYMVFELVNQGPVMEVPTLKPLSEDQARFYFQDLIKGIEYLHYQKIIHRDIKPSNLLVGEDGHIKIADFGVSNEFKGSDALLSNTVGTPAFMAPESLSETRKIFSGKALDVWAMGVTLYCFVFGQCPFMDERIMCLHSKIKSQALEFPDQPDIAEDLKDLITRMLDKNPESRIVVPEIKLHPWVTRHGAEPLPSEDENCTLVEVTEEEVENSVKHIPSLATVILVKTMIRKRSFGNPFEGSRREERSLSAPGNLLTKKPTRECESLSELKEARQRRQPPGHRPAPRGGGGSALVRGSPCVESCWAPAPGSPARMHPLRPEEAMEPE
Sequence of NLK (human) (Q9UBE8 whole entry, looked up): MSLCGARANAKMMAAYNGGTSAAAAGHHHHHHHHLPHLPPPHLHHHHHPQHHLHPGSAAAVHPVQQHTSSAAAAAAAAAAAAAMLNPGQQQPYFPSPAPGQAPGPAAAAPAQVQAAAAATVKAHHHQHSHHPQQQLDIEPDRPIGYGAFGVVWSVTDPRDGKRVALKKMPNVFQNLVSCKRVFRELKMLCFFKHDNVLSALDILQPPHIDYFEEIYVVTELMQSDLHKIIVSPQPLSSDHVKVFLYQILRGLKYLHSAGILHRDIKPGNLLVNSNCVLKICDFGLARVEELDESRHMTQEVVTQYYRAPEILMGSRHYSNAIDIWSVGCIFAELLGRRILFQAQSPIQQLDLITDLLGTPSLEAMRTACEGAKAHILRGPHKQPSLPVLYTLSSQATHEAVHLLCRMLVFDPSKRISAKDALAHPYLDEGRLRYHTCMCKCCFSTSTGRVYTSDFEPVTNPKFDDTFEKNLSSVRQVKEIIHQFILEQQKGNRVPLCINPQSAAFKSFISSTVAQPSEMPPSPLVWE
Sequence of MAP3K10 (human) (Q02779 whole entry, looked up): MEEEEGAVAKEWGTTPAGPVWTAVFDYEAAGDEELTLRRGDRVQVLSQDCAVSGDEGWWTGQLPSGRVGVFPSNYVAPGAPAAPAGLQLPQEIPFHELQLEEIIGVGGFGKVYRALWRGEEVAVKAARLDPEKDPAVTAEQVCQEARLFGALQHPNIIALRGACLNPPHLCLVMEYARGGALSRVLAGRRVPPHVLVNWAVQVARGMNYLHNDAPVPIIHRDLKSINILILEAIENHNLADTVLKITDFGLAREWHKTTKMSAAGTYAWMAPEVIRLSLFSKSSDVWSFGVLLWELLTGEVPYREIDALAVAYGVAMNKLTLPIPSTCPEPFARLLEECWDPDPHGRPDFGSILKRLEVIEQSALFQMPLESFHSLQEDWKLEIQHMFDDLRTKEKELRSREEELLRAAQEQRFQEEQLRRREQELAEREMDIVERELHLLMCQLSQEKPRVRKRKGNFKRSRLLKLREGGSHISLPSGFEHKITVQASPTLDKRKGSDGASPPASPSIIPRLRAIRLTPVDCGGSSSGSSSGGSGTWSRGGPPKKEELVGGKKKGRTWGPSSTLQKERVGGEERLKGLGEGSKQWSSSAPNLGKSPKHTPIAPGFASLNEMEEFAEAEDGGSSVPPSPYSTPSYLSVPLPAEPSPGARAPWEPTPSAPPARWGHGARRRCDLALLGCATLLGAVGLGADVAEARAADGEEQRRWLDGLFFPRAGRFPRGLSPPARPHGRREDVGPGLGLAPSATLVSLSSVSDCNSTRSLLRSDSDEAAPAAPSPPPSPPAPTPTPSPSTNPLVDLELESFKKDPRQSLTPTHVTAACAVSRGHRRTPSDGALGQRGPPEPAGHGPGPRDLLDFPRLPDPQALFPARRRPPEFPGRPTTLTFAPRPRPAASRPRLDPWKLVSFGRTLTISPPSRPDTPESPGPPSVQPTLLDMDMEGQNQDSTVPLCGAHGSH
Sequence of GRK6 (human) (P43250 whole entry, looked up): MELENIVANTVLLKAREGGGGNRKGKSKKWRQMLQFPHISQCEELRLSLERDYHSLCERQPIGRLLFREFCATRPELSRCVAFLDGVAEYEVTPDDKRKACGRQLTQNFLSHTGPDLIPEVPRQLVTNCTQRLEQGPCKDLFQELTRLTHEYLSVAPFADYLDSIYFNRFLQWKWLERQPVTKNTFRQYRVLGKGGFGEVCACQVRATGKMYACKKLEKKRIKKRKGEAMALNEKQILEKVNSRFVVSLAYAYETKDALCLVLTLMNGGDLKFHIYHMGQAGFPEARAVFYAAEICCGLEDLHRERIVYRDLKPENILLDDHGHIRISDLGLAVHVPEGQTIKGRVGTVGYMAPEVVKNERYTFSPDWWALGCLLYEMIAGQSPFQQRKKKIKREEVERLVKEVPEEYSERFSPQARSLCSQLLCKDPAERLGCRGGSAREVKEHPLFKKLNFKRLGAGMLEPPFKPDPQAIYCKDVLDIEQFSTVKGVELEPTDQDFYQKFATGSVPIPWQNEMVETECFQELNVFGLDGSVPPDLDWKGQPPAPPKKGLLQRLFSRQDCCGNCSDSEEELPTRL
Sequence of HIPK2 (human) (Q9H2X6 whole entry, looked up): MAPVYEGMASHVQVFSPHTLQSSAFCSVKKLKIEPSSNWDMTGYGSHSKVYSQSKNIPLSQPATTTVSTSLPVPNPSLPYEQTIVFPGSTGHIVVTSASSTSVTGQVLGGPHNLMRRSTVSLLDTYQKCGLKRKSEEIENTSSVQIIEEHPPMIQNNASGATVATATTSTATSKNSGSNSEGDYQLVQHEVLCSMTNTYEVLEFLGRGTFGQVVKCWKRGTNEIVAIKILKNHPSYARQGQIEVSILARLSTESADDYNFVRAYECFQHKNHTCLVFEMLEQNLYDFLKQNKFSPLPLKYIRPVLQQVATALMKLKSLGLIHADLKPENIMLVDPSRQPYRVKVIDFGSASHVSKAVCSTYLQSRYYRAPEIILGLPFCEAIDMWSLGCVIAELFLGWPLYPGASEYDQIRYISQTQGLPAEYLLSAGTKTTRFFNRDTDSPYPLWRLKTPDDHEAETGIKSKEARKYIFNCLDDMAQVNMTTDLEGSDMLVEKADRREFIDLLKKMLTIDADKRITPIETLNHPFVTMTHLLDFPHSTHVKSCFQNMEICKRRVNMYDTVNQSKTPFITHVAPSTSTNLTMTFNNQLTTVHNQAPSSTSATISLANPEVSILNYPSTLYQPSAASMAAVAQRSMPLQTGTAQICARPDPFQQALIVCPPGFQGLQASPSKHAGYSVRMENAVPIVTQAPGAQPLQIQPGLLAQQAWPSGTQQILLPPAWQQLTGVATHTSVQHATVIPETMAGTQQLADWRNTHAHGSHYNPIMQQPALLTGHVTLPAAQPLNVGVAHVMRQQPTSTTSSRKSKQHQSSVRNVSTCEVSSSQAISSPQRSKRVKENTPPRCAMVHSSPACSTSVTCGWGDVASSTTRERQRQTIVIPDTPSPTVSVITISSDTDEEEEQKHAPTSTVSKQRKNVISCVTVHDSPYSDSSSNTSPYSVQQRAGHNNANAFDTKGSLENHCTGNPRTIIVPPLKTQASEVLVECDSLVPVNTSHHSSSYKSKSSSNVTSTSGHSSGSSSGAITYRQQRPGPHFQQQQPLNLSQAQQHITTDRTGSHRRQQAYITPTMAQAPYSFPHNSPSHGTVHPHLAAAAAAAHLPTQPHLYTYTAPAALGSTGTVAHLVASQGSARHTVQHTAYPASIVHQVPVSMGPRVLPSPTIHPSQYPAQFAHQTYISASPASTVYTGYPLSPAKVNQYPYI
Sequence of MATK (human) (P42679 whole entry, looked up): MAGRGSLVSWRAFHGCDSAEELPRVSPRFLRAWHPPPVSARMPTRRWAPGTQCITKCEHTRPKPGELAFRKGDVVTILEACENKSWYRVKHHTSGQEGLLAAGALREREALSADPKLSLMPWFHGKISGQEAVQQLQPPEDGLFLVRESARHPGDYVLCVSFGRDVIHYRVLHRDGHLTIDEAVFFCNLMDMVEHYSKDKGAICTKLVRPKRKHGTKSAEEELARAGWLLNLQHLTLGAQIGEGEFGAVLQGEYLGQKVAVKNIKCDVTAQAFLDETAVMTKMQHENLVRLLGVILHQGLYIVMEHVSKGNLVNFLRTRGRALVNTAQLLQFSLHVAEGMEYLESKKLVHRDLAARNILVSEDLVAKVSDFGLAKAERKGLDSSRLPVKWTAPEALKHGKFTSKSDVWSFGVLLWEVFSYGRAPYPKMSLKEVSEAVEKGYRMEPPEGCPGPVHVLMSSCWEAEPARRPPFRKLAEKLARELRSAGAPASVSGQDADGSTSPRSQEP
Sequence of TSSK1B (human) (Q9BXA7 whole entry, looked up): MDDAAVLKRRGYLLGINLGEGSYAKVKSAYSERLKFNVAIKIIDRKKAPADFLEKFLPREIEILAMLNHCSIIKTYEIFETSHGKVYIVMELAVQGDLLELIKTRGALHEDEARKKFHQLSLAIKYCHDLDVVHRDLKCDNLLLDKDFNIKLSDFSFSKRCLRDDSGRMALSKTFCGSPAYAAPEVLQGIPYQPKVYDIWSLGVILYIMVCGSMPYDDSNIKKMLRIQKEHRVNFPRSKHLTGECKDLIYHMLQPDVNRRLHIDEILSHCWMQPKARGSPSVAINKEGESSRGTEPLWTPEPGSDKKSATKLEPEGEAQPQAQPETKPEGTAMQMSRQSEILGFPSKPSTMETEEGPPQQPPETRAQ

## Nc1nc(Nc2ccc(S(N)(=O)=O)cc2)nn1C(=O)c1c(F)cccc1F
MAP2K1 (human)
  residual activity: 93.9%
FGFR4 (human)
  residual activity: 90.3%
TNK2 (human)
  residual activity: 68%
TXK (human)
  residual activity: 95.8%
PASK (human)
  residual activity: 91.1%
MAP3K2 (human)
  residual activity: 11.3%
PIM3 (human)
  residual activity: 102%
CAMK2G (human)
  residual activity: 104%
MAP3K10 (human)
  residual activity: 77.8%
SRMS (human)
  residual activity: 96.5%
SRPK1 (human)
  residual activity: 86.4%
ACVRL1 (human)
  residual activity: 88.5%
CAMKK2 (human)
  residual activity: 61.5%
STK39 (human)
  residual activity: 89.5%
AKT1 (human)
  residual activity: 120%
CDC42BPB (human)
  residual activity: 96%
BRSK2 (human)
  residual activity: 49%
DDR2 (human)
  residual activity: 113%
IRAK1 (human)
  residual activity: 89.8%
INSR (human)
  residual activity: 94.9%
MAPK14 (human)
  residual activity: 97.8%
GRK6 (human)
  residual activity: 77.2%
CHEK1 (human)
  residual activity: 76.3%
FLT3 (human)
  residual activity: 44.3%
NEK11 (human)
  residual activity: 95.8%
ITK (human)
  residual activity: 105%
CDK4 CCND1 (human)
  residual activity: 20%
CDK2 CCNE1 (human)
  residual activity: 7.15%
RPS6KA5 KD2 (human)
  residual activity: 97.2%
MAP3K9 (human)
  residual activity: 25.6%
MAPK11 (human)
  residual activity: 94%
TSSK1B (human)
  residual activity: 85.5%
NLK (human)
  residual activity: 86%
CDK5 CDK5R1 p35 (human)
  residual activity: 0.212%
PLK1 (human)
  residual activity: 97.5%
MATK (human)
  residual activity: 104%
HIPK2 (human)
  residual activity: 72.8%
CDK1 CCNA2 (human)
  residual activity: 10.3%
STK4 (human)
  residual activity: 19.9%
GSK3B (human)
  residual activity: 22%
GSG2 (human)
  residual activity: 107%

## COc1cc2ncnc(Nc3ccc(F)c(Cl)c3)c2cc1OCCCN1CCOCC1
MAP2K1 (human)
  residual activity: 107%
FGFR4 (human)
  residual activity: 92.4%
TNK2 (human)
  residual activity: 72.8%
TXK (human)
  residual activity: 83.2%
PASK (human)
  residual activity: 97.9%
MAP3K2 (human)
  residual activity: 109%
PIM3 (human)
  residual activity: 74.6%
CAMK2G (human)
  residual activity: 128%
MAP3K10 (human)
  residual activity: 109%
SRMS (human)
  residual activity: 96.4%
SRPK1 (human)
  residual activity: 98.3%
ACVRL1 (human)
  residual activity: 96.9%
CAMKK2 (human)
  residual activity: 103%
STK39 (human)
  residual activity: 93.5%
AKT1 (human)
  residual activity: 94.1%
BRSK2 (human)
  residual activity: 103%
DDR2 (human)
  residual activity: 117%
IRAK1 (human)
  residual activity: 57.6%
INSR (human)
  residual activity: 107%
MAPK14 (human)
  residual activity: 74.6%
GRK6 (human)
  residual activity: 99.6%
CHEK1 (human)
  residual activity: 95.3%
FLT3 (human)
  residual activity: 56.5%
NEK11 (human)
  residual activity: 109%
ITK (human)
  residual activity: 99.9%
CDK4 CCND1 (human)
  residual activity: 94.3%
CDK2 CCNE1 (human)
  residual activity: 101%
RPS6KA5 KD2 (human)
  residual activity: 100%
MAP3K9 (human)
  residual activity: 110%
MAPK11 (human)
  residual activity: 95.1%
TSSK1B (human)
  residual activity: 90%
NLK (human)
  residual activity: 91.1%
AURKB (human)
  residual activity: 106%
CDK5 CDK5R1 p35 (human)
  residual activity: 103%
PLK1 (human)
  residual activity: 97%
MATK (human)
  residual activity: 86.4%
HIPK2 (human)
  residual activity: 99.7%
CDK1 CCNA2 (human)
  residual activity: 101%
STK4 (human)
  residual activity: 101%
GSK3B (human)
  residual activity: 100%
GSG2 (human)
  residual activity: 84%

## Cc1ccc(NC(=O)c2ccc(CN3CCN(C)CC3)cc2)cc1Nc1nc(-c2cccnc2)cs1
MAP2K1 (human)
  residual activity: 111%
FGFR4 (human)
  residual activity: 89.8%
TNK2 (human)
  residual activity: 95.7%
TXK (human)
  residual activity: 101%
PASK (human)
  residual activity: 103%
MAP3K2 (human)
  residual activity: 102%
PIM3 (human)
  residual activity: 73.7%
CAMK2G (human)
  residual activity: 98.6%
MAP3K10 (human)
  residual activity: 102%
SRMS (human)
  residual activity: 92.9%
SRPK1 (human)
  residual activity: 98.9%
ACVRL1 (human)
  residual activity: 103%
CAMKK2 (human)
  residual activity: 101%
STK39 (human)
  residual activity: 94%
AKT1 (human)
  residual activity: 93.2%
CDC42BPB (human)
  residual activity: 98.1%
BRSK2 (human)
  residual activity: 99.9%
DDR2 (human)
  residual activity: 36.4%
IRAK1 (human)
  residual activity: 104%
INSR (human)
  residual activity: 99%
MAPK14 (human)
  residual activity: 98.1%
GRK6 (human)
  residual activity: 104%
CHEK1 (human)
  residual activity: 110%
FLT3 (human)
  residual activity: 84.4%
NEK11 (human)
  residual activity: 95.1%
ITK (human)
  residual activity: 98.7%
CDK4 CCND1 (human)
  residual activity: 94.1%
CDK2 CCNE1 (human)
  residual activity: 95%
RPS6KA5 KD2 (human)
  residual activity: 103%
MAP3K9 (human)
  residual activity: 104%
MAPK11 (human)
  residual activity: 102%
TSSK1B (human)
  residual activity: 100%
NLK (human)
  residual activity: 106%
AURKB (human)
  residual activity: 99.5%
CDK5 CDK5R1 p35 (human)
  residual activity: 100%
PLK1 (human)
  residual activity: 101%
MATK (human)
  residual activity: 85.9%
HIPK2 (human)
  residual activity: 90.8%
CDK1 CCNA2 (human)
  residual activity: 98%
STK4 (human)
  residual activity: 101%
GSG2 (human)
  residual activity: 100%

## O=C(NC(NC(=S)Nc1ccc(F)c([N+](=O)[O-])c1)C(Cl)(Cl)Cl)C(c1ccccc1)c1ccccc1 (centres undefined)
MAP2K1 (human)
  residual activity: 95.1%
FGFR4 (human)
  residual activity: 100%
TNK2 (human)
  residual activity: 98%
TXK (human)
  residual activity: 108%
PASK (human)
  residual activity: 104%
MAP3K2 (human)
  residual activity: 96.8%
PIM3 (human)
  residual activity: 120%
CAMK2G (human)
  residual activity: 107%
MAP3K10 (human)
  residual activity: 98.9%
SRMS (human)
  residual activity: 96.9%
SRPK1 (human)
  residual activity: 99.3%
ACVRL1 (human)
  residual activity: 107%
CAMKK2 (human)
  residual activity: 126%
STK39 (human)
  residual activity: 77%
AKT1 (human)
  residual activity: 118%
CDC42BPB (human)
  residual activity: 97.2%
BRSK2 (human)
  residual activity: 102%
DDR2 (human)
  residual activity: 96.4%
IRAK1 (human)
  residual activity: 107%
INSR (human)
  residual activity: 100%
MAPK14 (human)
  residual activity: 101%
GRK6 (human)
  residual activity: 97.5%
CHEK1 (human)
  residual activity: 100%
FLT3 (human)
  residual activity: 99.3%
NEK11 (human)
  residual activity: 92.2%
ITK (human)
  residual activity: 94.9%
CDK4 CCND1 (human)
  residual activity: 116%
CDK2 CCNE1 (human)
  residual activity: 89.2%
RPS6KA5 KD2 (human)
  residual activity: 113%
MAP3K9 (human)
  residual activity: 94%
MAPK11 (human)
  residual activity: 104%
TSSK1B (human)
  residual activity: 93.4%
NLK (human)
  residual activity: 106%
AURKB (human)
  residual activity: 95.3%
PLK1 (human)
  residual activity: 111%
MATK (human)
  residual activity: 96.5%
HIPK2 (human)
  residual activity: 118%
CDK1 CCNA2 (human)
  residual activity: 101%
STK4 (human)
  residual activity: 96.2%
GSK3B (human)
  residual activity: 109%
GSG2 (human)
  residual activity: 109%
